Assay results: BindingDB's records for doi:10.1124/mol.112.080291 (University of California San Diego, 2014)
pEC50, pKi: −log10 of the molar value. Several values for one entry are separate records, joined by “and”; a condition that tells them apart may be missing. Equal values may be shown once.

How the values were obtained:
Assay in all cases: Synthesizing Selective Agonists for the ?7 Nicotinic Receptor with in situ Click-Chemistry on Acetylcholine Binding Protein Templates.
[1] = target: T1, Soluble acetylcholine receptor (Aplysia californica, UniProt Q8WSF8); conditions: pH 7.4; 20 °C
T1 sequence (Q8WSF8 whole entry): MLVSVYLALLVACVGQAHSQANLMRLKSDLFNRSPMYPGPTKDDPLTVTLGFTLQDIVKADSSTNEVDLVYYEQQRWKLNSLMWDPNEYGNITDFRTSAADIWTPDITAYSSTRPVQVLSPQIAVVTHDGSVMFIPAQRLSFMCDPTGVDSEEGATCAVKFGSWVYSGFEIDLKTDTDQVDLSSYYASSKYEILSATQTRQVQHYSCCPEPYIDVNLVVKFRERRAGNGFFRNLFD
Experimental: (§1) Assay Description 2 Assays used to generate Ki or EC50 values. 1) SPA Assay - Quick screen binding assays were performed using 100 l of 0.2 mg/ml anti-mouse SPA antibody-binding beads (Amersham Biosciences) mixed with 33.6 g of monoclonal anti-FLAG M2 antibody from mouse (Sigma) in 0.1 M NaPO4 buffer, pH 7.0 (SPA mixture). Media (5l) collected 2 days after transfection were added to the mixture and finally 10 l of (+)-[3H]epibatidine (PerkinElmer Life Sciences) was added at a final concentration of 10 nM. Solutions were each counted for 1 min on either a Beckman LS 6500 liquid scintillation counter or Wallac 1450 Microbeta Trilux. Negative and positive controls consisted of media (5 l) from the respective transfections. Nonexpressing mutants were transfected and verified de novo in triplicate. Western immunoblots were also performed upon media (15 l) from transfections to verify the lack of expression. Competition curves and direct binding were measured following the protocol p

[2] = target: Neuronal acetylcholine receptor subunit alpha-4 (Homo sapiens, UniProt P43681); conditions: pH 7.4; 37 °C
Experimental: as §1

[3] = target: Acetylcholine-binding protein (Lymnaea stagnalis, UniProt P58154); conditions: pH 7.4; 20 °C
Experimental: as §1

[4] = target: T2, 5-hydroxytryptamine receptor 3A (Mus musculus, UniProt P23979); conditions: pH 7.4; 37 °C
T2 sequence (P23979 whole entry): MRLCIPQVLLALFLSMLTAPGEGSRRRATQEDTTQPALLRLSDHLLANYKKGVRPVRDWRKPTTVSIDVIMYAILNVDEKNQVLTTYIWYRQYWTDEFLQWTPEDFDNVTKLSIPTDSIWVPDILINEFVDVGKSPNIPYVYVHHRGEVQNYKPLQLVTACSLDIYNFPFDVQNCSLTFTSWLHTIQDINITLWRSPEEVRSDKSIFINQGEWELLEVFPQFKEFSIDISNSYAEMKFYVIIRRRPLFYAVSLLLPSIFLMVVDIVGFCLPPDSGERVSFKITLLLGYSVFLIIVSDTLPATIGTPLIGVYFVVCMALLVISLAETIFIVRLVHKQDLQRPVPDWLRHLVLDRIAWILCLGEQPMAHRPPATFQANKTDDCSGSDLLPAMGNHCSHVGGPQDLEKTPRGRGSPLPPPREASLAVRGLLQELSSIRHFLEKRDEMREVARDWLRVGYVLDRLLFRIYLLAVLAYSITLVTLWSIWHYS
Experimental: as §1

[5] = target: Neuronal acetylcholine receptor subunit alpha-7 (Homo sapiens, UniProt P36544); conditions: pH 7.4; 37 °C
Experimental: as §1

Chain of Neuronal acetylcholine receptor subunit alpha-4 (P43681 whole entry): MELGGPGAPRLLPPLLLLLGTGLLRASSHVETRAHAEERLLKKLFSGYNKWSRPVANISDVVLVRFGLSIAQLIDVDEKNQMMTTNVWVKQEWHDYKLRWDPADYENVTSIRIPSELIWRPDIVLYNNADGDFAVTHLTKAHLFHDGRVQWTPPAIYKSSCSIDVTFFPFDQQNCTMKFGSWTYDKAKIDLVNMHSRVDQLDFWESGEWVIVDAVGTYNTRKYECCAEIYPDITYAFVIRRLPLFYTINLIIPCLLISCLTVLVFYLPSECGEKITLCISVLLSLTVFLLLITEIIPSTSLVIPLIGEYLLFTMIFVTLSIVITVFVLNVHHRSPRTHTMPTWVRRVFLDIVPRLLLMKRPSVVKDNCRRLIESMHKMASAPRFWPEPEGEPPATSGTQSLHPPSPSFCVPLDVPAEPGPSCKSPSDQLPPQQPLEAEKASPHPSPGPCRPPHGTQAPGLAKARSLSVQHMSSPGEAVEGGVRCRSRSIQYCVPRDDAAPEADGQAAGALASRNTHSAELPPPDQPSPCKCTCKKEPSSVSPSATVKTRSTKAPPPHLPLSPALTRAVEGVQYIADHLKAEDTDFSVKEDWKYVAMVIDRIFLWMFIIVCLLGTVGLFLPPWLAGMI
Chain of Neuronal acetylcholine receptor subunit alpha-7 (P36544 whole entry): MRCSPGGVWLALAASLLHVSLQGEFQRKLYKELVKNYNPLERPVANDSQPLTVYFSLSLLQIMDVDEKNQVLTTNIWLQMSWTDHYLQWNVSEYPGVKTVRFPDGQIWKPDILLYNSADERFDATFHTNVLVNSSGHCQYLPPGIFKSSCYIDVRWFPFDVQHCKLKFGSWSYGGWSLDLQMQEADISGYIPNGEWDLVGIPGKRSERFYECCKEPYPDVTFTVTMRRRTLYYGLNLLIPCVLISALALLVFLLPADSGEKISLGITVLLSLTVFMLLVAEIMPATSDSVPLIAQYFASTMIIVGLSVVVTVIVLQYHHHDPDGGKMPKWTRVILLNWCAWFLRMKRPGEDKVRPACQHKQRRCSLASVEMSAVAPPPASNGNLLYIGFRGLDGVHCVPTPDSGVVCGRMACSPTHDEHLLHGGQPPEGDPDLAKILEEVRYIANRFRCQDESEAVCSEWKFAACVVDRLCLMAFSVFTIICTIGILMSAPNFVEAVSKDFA
Chain of Acetylcholine-binding protein (P58154 whole entry): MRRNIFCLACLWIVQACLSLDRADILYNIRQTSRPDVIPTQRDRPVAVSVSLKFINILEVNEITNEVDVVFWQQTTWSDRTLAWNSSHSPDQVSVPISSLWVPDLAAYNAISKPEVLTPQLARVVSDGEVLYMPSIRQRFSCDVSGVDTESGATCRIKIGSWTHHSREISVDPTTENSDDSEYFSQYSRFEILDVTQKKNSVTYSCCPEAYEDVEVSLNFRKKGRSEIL

Compound | pKi [1] | pKi [2] | pKi [3] | pKi [4] | pEC50 [5]
CC(=O)c1c(OCc2cn([C@@H]3C[C@H]4CC[C@@H](C3)[N+]4(C)C)nn2)ccc2ccccc12 [22q] | 6.70 and 6.52 and 6.05 | < 4.52 | 6.80 | < 4.52 | 6.40
C[N+]1(C)[C@@H]2CC[C@H]1C[C@H](n1cc(CSc3nc4ccccc4s3)nn1)C2 [15q] | 7.89 and 8.10 | 5.52 | 8.40 | < 4.52 | 6.70
CC(=O)NCc1cn([C@@H]2C[C@H]3CC[C@@H](C2)N3C)nn1 [10t] | < 5.30 | 4.74 | 6.05 | < 4.52 | < 4.52
COc1ccc(C=O)c(OCc2cn([C@@H]3C[C@H]4CC[C@@H](C3)[N+]4(C)C)nn2)c1 [13q] | 6.96 and 6.92 and 7.10 | 5.15 | 7.70 | < 4.52 | 6.10
C[N+]1(C)[C@@H]2CC[C@H]1C[C@H](n1cc(C3(O)c4ccccc4-c4ccccc43)nn1)C2 [20q] | 6.40 and 6.22 and 6.92 | 4.82 | 7.30 | < 4.52 | 5.40
CN1[C@@H]2CC[C@H]1C[C@H](n1cc(COc3cc(=O)n(C)c4ccccc34)nn1)C2 [alpha7 agonists 4t] |  | 4.85 | 8.89 | 4.82 | 4.96
C[N+]1(C)[C@@H]2CC[C@H]1C[C@H](n1cc(CNS(=O)(=O)c3ccc([N+](=O)[O-])cc3)nn1)C2 [16q] | 6.21 and 6.10 and 6.22 | < 4.52 | < 5.30 | < 4.52 | 5.74
C[N+]1(C)[C@@H]2CC[C@H]1C[C@H](n1cc(C(O)(c3ccccc3)C(F)(F)F)nn1)C2 (stereo partly specified) [19q] |  | 4.66 | 6.92 | < 4.52 | 5.70
C[N+]1(C)[C@@H]2CC[C@H]1C[C@H](n1cc(C3(O)CCCCC3)nn1)C2 [11q] |  | < 4.52 | < 5.30 | < 4.52 | 5.05
CN1[C@@H]2CC[C@H]1C[C@H](n1cc(CNC(=O)N3c4ccccc4CCc4ccccc43)nn1)C2 [23t] | 5.89 and 5.99 and < 5.30 | < 4.52 | < 5.30 | < 4.52 | < 4.52
COc1ccc(C=O)c(OCc2cn([C@@H]3C[C@H]4CC[C@@H](C3)N4C)nn2)c1 [13t] |  | 5.30 | 7.59 | 5.30 | < 4.52
C[N+]1(C)[C@@H]2CC[C@H]1C[C@H](n1cc(CNC(=O)N3c4ccccc4CCc4ccccc43)nn1)C2 [23q] | 6.38 and 6.00 and 5.70 | 4.52 | 6.30 | < 4.52 | 5.10
Cn1nncc1COc1cc(=O)n(C)c2ccccc12 [alpha7 agonists 1'] | 5.85 and 6.77 | 4.52 | 7.22 | < 4.52 | 5.22
Cn1c(=O)cc(OCc2cn([C@@H]3C[C@H]4CC[C@@H](C3)[N+]4(C)C)nn2)c2ccccc21 [alpha7 agonists 4] |  | 5.40 |  | 4.47 | 6.52
CN1[C@@H]2CC[C@H]1C[C@H](n1cc(C(O)(c3ccccc3)C(F)(F)F)nn1)C2 (stereo partly specified) [19t] | < 5.30 | < 4.52 | < 5.30 | < 4.52 | < 4.52
CC(=O)NCc1cn([C@@H]2C[C@H]3CC[C@@H](C2)[N+]3(C)C)nn1 [10q] | 6.10 and < 5.30 and 6.05 | < 4.52 | < 5.30 | < 4.52 | 5.30
C[N+]1(C)[C@@H]2CC[C@H]1C[C@H](n1cc(-c3cc(C(F)(F)F)cc(C(F)(F)F)c3)nn1)C2 [17q] | 6.96 and 6.52 and 6.40 | 5.30 | 6.89 | 5.10 | 6.05
Cc1cc(C)nc(SCCCc2cn([C@@H]3C[C@H]4CC[C@@H](C3)[N+]4(C)C)nn2)n1 [21q] |  | 4.57 | 7.40 | < 4.52 | 5.52
CC(=O)c1c(OCc2cn([C@@H]3C[C@H]4CC[C@@H](C3)N4C)nn2)ccc2ccccc12 [22t] | 6.10 and 6.15 and < 5.30 | 4.92 | 6.85 | 4.92 | 5.05
C[N+]1(C)[C@@H]2CC[C@H]1C[C@H](n1cc(CNC(=O)c3ccco3)nn1)C2 [12q] | 6.22 and 6.00 and 6.15 | < 4.52 | 6.40 | < 4.52 | 5.52

Compound | pKi [1] | pKi [2] | pKi [3] | pKi [4] | pEC50 [5]
Cn1c(=O)cc(OCc2cn(CC[N+]34CCC(CC3)CC4)nn2)c2ccccc21 [alpha7 agonists 3] |  | 5.10 |  | < 4.52 | 5.74
CN1[C@@H]2CC[C@H]1C[C@H](n1cc(-c3cc(C(F)(F)F)cc(C(F)(F)F)c3)nn1)C2 [17t] | 5.96 and < 5.30 | < 4.52 | 6.22 | < 4.52 | < 4.52
Cn1c(=O)cc(OCc2cnnn2CCC[N+]2(C)CCCC2)c2ccccc21 [5'] | 5.85 and 6.10 | 4.40 | 6.22 | < 4.52 | 5.70
C[N+]1(C)[C@@H]2CC[C@H]1C[C@H](n1cc(COc3cccc(C#N)c3)nn1)C2 [alpha7 agonists 7] |  | < 4.52 |  | < 4.52 | 6.05
COc1cc(C=O)ccc1OCc1cn([C@@H]2C[C@H]3CC[C@@H](C2)[N+]3(C)C)nn1 [alpha7 agonists 8] |  | 5.22 |  | < 4.52 | 6.00
Cc1cc(C)nc(SCCCc2cn([C@@H]3C[C@H]4CC[C@@H](C3)N4C)nn2)n1 [21t] |  | < 4.52 | 6.52 | < 4.52 | < 4.52
Cc1cc([N+](=O)[O-])ccc1OCc1cn([C@@H]2C[C@H]3CC[C@@H](C2)[N+]3(C)C)nn1 [alpha7 agonists 9] |  | 4.85 |  | < 4.52 | 5.72
C[N+](C)(C)CCn1cc(COc2cc([O])nc3ccccc23)nn1 [alpha7 agonists 6] |  | 4.85 |  | < 4.52 | 5.77
C[N+]1(C)[C@@H]2CC[C@H]1C[C@H](n1cc(COc3ccccc3-c3ccno3)nn1)C2 [14q] | 6.85 and 6.77 and 7.02 | < 4.52 | 7.30 | < 4.52 | 5.70
O=c1cc(OCc2cnnn2CC[N+]23CCC(CC2)CC3)c2ccccc2[nH]1 [3'] | 6.60 and 6.54 | 4.52 | 7.62 | < 4.52 | 5.54
CCC[N+](C)(C)CCn1nncc1COc1cc(=O)n(C)c2ccccc12 [2'] | 6.10 and 6.68 | < 4.52 | 7.40 | < 4.52 | 5.38
CN1[C@@H]2CC[C@H]1C[C@H](n1cc(CNS(=O)(=O)c3ccc([N+](=O)[O-])cc3)nn1)C2 [16t] | < 5.30 | < 4.52 | < 5.30 | < 4.52 | 5.30
CN1[C@@H]2CC[C@H]1C[C@H](n1cc(C3(O)CCCCC3)nn1)C2 [11t] | < 5.30 | < 4.52 | < 5.30 | < 4.52 | < 4.52
CN1[C@@H]2CC[C@H]1C[C@H](n1cc(COc3ccccc3-c3ccno3)nn1)C2 [14t] |  | < 4.52 | 7.60 | < 4.52 | < 4.52
CN1CC=C(OCc2cnnn2C2CC3CCC(C2)[N+]3(C)C)c2ccccc21 (stereo unspecified) [4'] | 6.52 and 7.00 | 4.64 | 8.70 | 6.05 | 6.22
Cn1c(=O)cc(OCc2cn(CCC[N+]3(C)CCCC3)nn2)c2ccccc21 [alpha7 agonists 5] |  | 4.74 |  | < 4.52 | 6.10
CN1[C@@H]2CC[C@H]1C[C@H](n1cc(CSc3nc4ccccc4s3)nn1)C2 [15t] | 6.62 and 6.85 and 6.96 | 4.49 | 7.40 | 4.49 | 4.92
CN1[C@@H]2CC[C@H]1C[C@H](n1cc(CNC(=O)c3ccco3)nn1)C2 [12t] | < 5.30 and 5.85 | 4.70 | 6.68 | < 4.52 | < 4.52
Cn1c(=O)cc(OCc2cn(CC[N+]3(C)CCCCC3)nn2)c2ccccc21 [alpha7 agonists 2] |  | 4.92 |  | < 4.52 | 5.92
CN1[C@@H]2CC[C@H]1C[C@H](n1cc(COc3ccccc3C3CCCC3)nn1)C2 [18t] |  | 4.92 | 7.52 | 4.92 | < 4.52
